Like-named read-outs stand apart in the source and are kept apart here.
Tests used:
[1] = tested on: LNcap cells; assay: Inhibitory effect on proliferation of LNcap cells (CCK-8, 72 h); assay type: cell-based; settings: Homo sapiens, LNcap cells, CCK-8, read-out: LNcap cells IC50
Procedure: A dish of LNcap cells (human prostate cancer cells with PTEN deficiency) growing at log phase and in good conditions were taken and digested for 3 min by using 1 mL of pancreatin, then the mixture was added with 4 mL of complete culture medium to terminate digestion, and the cells were added to a centrifuge tube. 20 μL of cells were taken and counted, the required number of cells (mL) was pipetted and centrifuged at 1200 rpm for 5 min, the supernatant was discarded, and an appropriate amount of plating medium (RPMI medium+5% FBS+1% sodium pyruvate+1% glutamine) was added to adjust the cell density to 3×10^4 cells/mL. The cells were seeded on a 96-well plate at 100 μL/well using a multi-channel pipette and cultured in a cell incubator at 37° C., 5% CO2 and saturated humidity. After incubation overnight, compounds were loaded using a nanoliter pipettor, 2 duplicate wells were set for each concentration, and cells without compound were used as negative controls. After 72 h, CCK-8 was added at 10 μL/well for incubation for 4 h, then absorbance was measured at 450 nm with an Envision plate reader, and inhibition rate was calculated. Inhibition rate (%)=(mean value of negative control group−mean value of experimental group)/(mean value of negative control group−mean value of blank group)×100%. A dose-response curve was fitted by four-parameter analysis, with the logarithm of compound concentration as abscissa and inhibition rate as ordinate, so that IC50 was calculated.

[2] = target: T1, AKT1 (S473) (Homo sapiens, UniProt P31749); assay: Inhibitory effect on phosphorylation of LNcap cells AKT1 (S473); assay type: cell-based; settings: 1 h incubation
T1 construct: endogenous in cells; host or cells: LNcap cells
T1 sequence (P31749 whole entry): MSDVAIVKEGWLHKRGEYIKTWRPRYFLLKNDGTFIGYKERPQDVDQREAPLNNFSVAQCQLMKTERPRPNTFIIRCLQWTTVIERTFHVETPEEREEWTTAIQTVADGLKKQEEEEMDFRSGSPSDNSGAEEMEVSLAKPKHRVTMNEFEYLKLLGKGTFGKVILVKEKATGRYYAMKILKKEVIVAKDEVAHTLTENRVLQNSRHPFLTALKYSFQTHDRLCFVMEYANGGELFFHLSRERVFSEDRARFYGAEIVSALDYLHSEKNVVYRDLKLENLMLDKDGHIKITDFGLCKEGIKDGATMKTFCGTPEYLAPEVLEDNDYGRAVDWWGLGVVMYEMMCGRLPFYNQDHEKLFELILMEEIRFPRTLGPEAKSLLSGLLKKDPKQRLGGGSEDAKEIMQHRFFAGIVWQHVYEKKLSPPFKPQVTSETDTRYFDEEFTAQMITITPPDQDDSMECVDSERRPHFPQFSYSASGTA
Procedure: LNcap cells AKT1 (S473) growing at log phase were taken, digested with 1 mL of pancreatin for 3 min, and added with 4 mL of complete medium to terminate digestion. The cells were added to a centrifuge tube. 20 μL of cells were taken and counted, the required number of cells (mL) was taken and centrifuged at 1200 rpm for 5 min, and a plating medium (2% FBS+phenol-free red 1640 base medium+1% sodium pyruvate+1% glutamine) was added to adjust the cell density to about 1×10E6 cells/mL. The cells were plated (96 wells) at the above cell density (100 μL/well), and cultured in a cell incubator at 37° C., 5% CO2 overnight; the next day, according to the plate distribution, the corresponding compound was sprayed using a nanoliter pipettor and incubated for 1 h at 37° C. in a cell incubator containing 5% CO2; the supernatant was discarded, and the plate was added with 40 μL of lysis buffer (1×) containing blocking buffer and incubated by shaking at room temperature for 30 min. After the mixture was mixed, 16 μL of lysate was transferred to another 384-well small-volume white plate. The plate was added with 4 μL of pre-mixed antibody (v/v) in assay buffer, covered, centrifuged to mix well, and incubated overnight at room temperature. The 665 nm/620 nm signal value was detected using a PE Envision multi-functional microplate reader, and IC50 was calculated by four-parameter fitting.

[3] = Pharmacokinetic evaluation in mice; assay type: in vivo; design: Cl: unit not given here; settings: ICR mice; for AUC(0-inf) / AUC(0-t) / Cmax / Tmax / bioavailability / MRT last / Vd: mouse, plasma; for bioavailability: IG 10 mg/kg vs IV 1 mg/kg, read-out: Absolute bioavailability F %; for MRT last: read-out: MRT(0-t)
Procedure: ICR mice, weight 18-22 g, after adaption for 3-5 days, were randomly divided into 4 groups of 9 mice, each group was intragastrically (IG) administered with compound 28 or compound 30 at a dose of 10 mg/kg, or intravenously (IV) administered with compound 28 or compound 30 at a dose of 1 mg/kg.
The animals to be tested (ICR mice) were fasted for 12 h before administration and food was provided 4 h after administration, and water was freely drunk before and after the experiment and during the experiment.
After intragastric administration, about 0.1 mL of blood was taken from eye sockets at 15 min, 30 min, 1 h, 2 h, 3 h, 4 h, 6 h, 8 h, 10 h, and 24 h; after intravenous injection, about 0.1 mL of blood was taken from eye sockets at 5 min, 10 min, 30 min, 1 h, 2 h, 4 h, 6 h, 8 h, 10 h, and 24 h; each mouse was collected at 3-4 time points and 3 mice were collected at each time point, whole blood was collected, placed in centrifuge tubes containing EDTA-K2, and stored at 4° C. within 1 h, and the plasma was separated off by centrifugation at 4° C. and 4000 rpm for 10 min. All the plasma samples were collected and immediately stored at −20° C. for testing. 30 μL of the plasma sample to be tested and a standard curve sample were pipetted and added with 300 μL of acetonitrile solution containing an internal standard (20 ng/mL diazepam), shaken and mixed well for 5 min, and centrifuged at 13,000 rpm for 10 min. 80 μL of supernatant was taken and diluted with 80 μL of ultrapure water. After being mixed well, 2 μL of the resulting sample was taken for liquid chromatography-mass determination, and a chromatogram was recorded.
Oral and intravenous exposure of the compound of the present application was evaluated by in vivo pharmacokinetic experiment in mice.

Row | IC50 [1] | IC50 [2] | t1/2z ([3]; IG 10 mg/kg) | Cl ([3]; IV 1 mg/kg) | t1/2z ([3]; IV 1 mg/kg) | AUC(0-inf) ([3]; po, IG 10 mg/kg) | AUC(0-t) ([3]; po, IG 10 mg/kg) | Cmax ([3]; po, IG 10 mg/kg) | Tmax ([3]; po, IG 10 mg/kg) | bioavailability ([3]; po) | MRT last ([3]; po, IG 10 mg/kg) | AUC(0-inf) ([3]; IV 1 mg/kg) | AUC(0-t) ([3]; IV 1 mg/kg) | Vd ([3]; IV 1 mg/kg) | MRT last ([3]; IV 1 mg/kg) | SMILES
1 | 1.7 nM | 7.7 nM | 2.06 h | 0.23 | 1.159 h | 14500 ng·h/mL | 14500 ng·h/mL | 4020 ng/mL | 0.25 h | 34.3% | 3.95 h | 4340 ng·h/mL | 4240 ng·h/mL | 5.42 L/kg | 1.18 h | CN1CC2(CCN(c3cccc(-c4ccc5nc(-c6cccnc6N)n(-c6ccc(C7(N)CCC7)cc6)c5n4)c3F)CC2)CC1=O [Compound 45]
2 | 1.7 nM | 12 nM | 3.61 h | 0.206 | 1.34 h | 25100 ng·h/mL | 25000 ng·h/mL | 4960 ng/mL | 2 h | 51.7% | 3.58 h | 4840 ng·h/mL | 4840 ng·h/mL | 0.398 L/kg | 0.817 h | CC(=O)N1CC2(CCN(c3cccc(-c4ccc5nc(-c6cccnc6N)n(-c6ccc(C7(N)CCC7)cc6)c5n4)c3F)CC2)C1 [Compound 44]
